Data taken from ChEMBL document CHEMBL1201862, “PubChem BioAssay data set” (2004).
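These data come from cells grown in 96-well plates and exposed to compound for 48 hours at five concentrations. Abbreviation: GI50, concentration required for 50% inhibition of growth.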 The source made the active and inactive calls. Cut-off read from the data, not from the text of the source: active = GI50 up to about 1.1 µM and inactive = higher.

Assays:
Experiment in all cases: NCI-60 cell line screen, 48 h
[1] = system: UO-31
[2] = system: A549
[3] = system: RXF 393
[4] = system: OVCAR-5
[5] = system: MDA-MB-435
[6] = system: Malme-3M
[7] = system: T47D
[8] = system: HCC 2998
[9] = system: U-251
[10] = system: DU-145
[11] = system: EKVX
[12] = system: OVCAR-3
[13] = system: UACC-62
[14] = system: K562
[15] = system: ACHN
[16] = system: OVCAR-8
[17] = system: HOP-92
[18] = system: SK-MEL-28
[19] = system: CAKI-1
[20] = system: LOX IMVI

SMILES | GI50 [1] | GI50 [2] | GI50 [3] | GI50 [4] | GI50 [5] | GI50 [6] | GI50 [7] | GI50 [8] | GI50 [9] | GI50 [10] | GI50 [11] | GI50 [12] | GI50 [13] | GI50 [14] | GI50 [15] | GI50 [16] | GI50 [17] | GI50 [18] | GI50 [19] | GI50 [20]
c1ccc2cc3c(cc2c1)nc1ccccn13 | > 100 µM (inactive) | > 100 µM (inactive) | > 100 µM (inactive) | > 100 µM (inactive) | > 100 µM (inactive) | > 100 µM (inactive) | > 100 µM (inactive) | > 100 µM (inactive) | > 100 µM (inactive) | > 100 µM (inactive) | > 100 µM (inactive) | > 100 µM (inactive) | > 100 µM (inactive) | > 100 µM (inactive) | > 100 µM (inactive) | > 100 µM (inactive) | > 100 µM (inactive) | > 100 µM (inactive) | – | –
Oc1ccc(Cl)cc1-c1nc(S)nc(-c2ccccc2)c1Cl | > 88.5 µM (inactive) | > 100 µM (inactive) | 45 µM (inactive) | > 100 µM (inactive) | > 100 µM (inactive) | > 100 µM (inactive) | > 100 µM (inactive) | – | 43.2 µM (inactive) | > 70.6 µM (inactive) | – | > 100 µM (inactive) | > 10 µM (inactive) | > 100 µM (inactive) | > 90.8 µM (inactive) | > 100 µM (inactive) | 69.8 µM (inactive) | > 100 µM (inactive) | 48.1 µM (inactive) | > 56.9 µM (inactive)
COc1ccc(OC)c2sc(N3C(=O)/C(=C/Cc4ccco4)N=C3c3ccccc3)nc12 | 30.9 µM (inactive) | 34.7 µM (inactive) | – | > 100 µM (inactive) | 19.4 µM (inactive) | – | 26 µM (inactive) | > 100 µM (inactive) | 22.5 µM (inactive) | 32.4 µM (inactive) | 66.8 µM (inactive) | 31.4 µM (inactive) | 21.8 µM (inactive) | 29.9 µM (inactive) | 26.7 µM (inactive) | 33.5 µM (inactive) | 35.8 µM (inactive) | 79.1 µM (inactive) | 81.1 µM (inactive) | 25.1 µM (inactive)
COC(=O)c1ccccc1C#CC#Cc1ccccc1C(=O)OC | > 10 µM (inactive) | > 10 µM (inactive) | > 10 µM (inactive) | > 10 µM (inactive) | > 10 µM (inactive) | 6.79 µM (inactive) | > 10 µM (inactive) | > 10 µM (inactive) | > 10 µM (inactive) | > 10 µM (inactive) | > 10 µM (inactive) | 2.55 µM (inactive) | > 10 µM (inactive) | 8.57 µM (inactive) | > 10 µM (inactive) | 6.21 µM (inactive) | – | > 10 µM (inactive) | > 10 µM (inactive) | 7 µM (inactive)
O=C1NC(Cc2c[nH]c3ccccc23)C(=O)N2C(c3ccccc3)c3[nH]c4ccccc4c3C[C@@H]12 (stereo partly specified) | 23.5 µM (inactive) | 25.8 µM (inactive) | 16 µM (inactive) | 22 µM (inactive) | 18.8 µM (inactive) | 15 µM (inactive) | 24.4 µM (inactive) | – | 19.5 µM (inactive) | 32.3 µM (inactive) | 22.5 µM (inactive) | 15.5 µM (inactive) | 17.2 µM (inactive) | 21 µM (inactive) | 29.4 µM (inactive) | 31.3 µM (inactive) | 25.1 µM (inactive) | 29.7 µM (inactive) | 25.5 µM (inactive) | 19.7 µM (inactive)
COc1ccc(-c2sc(Br)c3c2C(=O)C2OC(=O)NC32)cc1OC (stereo unspecified) | > 100 µM (inactive) | > 100 µM (inactive) | > 100 µM (inactive) | > 100 µM (inactive) | > 100 µM (inactive) | > 100 µM (inactive) | > 100 µM (inactive) | – | > 100 µM (inactive) | > 100 µM (inactive) | > 100 µM (inactive) | > 100 µM (inactive) | > 100 µM (inactive) | > 100 µM (inactive) | > 100 µM (inactive) | > 100 µM (inactive) | > 100 µM (inactive) | – | > 100 µM (inactive) | 45.2 µM (inactive)
C[C@@H](c1ccccc1)n1c(N)c(-c2ccccn2)c2ccc([N+](=O)[O-])cc2c1=O | 14.5 µM (inactive) | 34.9 µM (inactive) | – | – | 92.7 µM (inactive) | – | 43.2 µM (inactive) | > 100 µM (inactive) | 47.5 µM (inactive) | 31.8 µM (inactive) | – | – | > 100 µM (inactive) | – | 56.9 µM (inactive) | 51.2 µM (inactive) | 33.3 µM (inactive) | > 100 µM (inactive) | 51.8 µM (inactive) | > 100 µM (inactive)
CC(C)=C/C=C1/CS(=O)(=O)C=C1C | > 100 µM (inactive) | > 100 µM (inactive) | > 100 µM (inactive) | > 100 µM (inactive) | > 100 µM (inactive) | > 100 µM (inactive) | > 100 µM (inactive) | > 100 µM (inactive) | > 100 µM (inactive) | > 100 µM (inactive) | > 100 µM (inactive) | > 100 µM (inactive) | > 100 µM (inactive) | > 100 µM (inactive) | > 100 µM (inactive) | > 100 µM (inactive) | – | > 100 µM (inactive) | > 100 µM (inactive) | > 100 µM (inactive)
O=c1/c(=C/c2ccc(-c3ccc(Cl)cc3Cl)o2)sc2n1[C@@H](c1ccc3c(c1)OCO3)C=C(c1cc(F)c(Cl)cc1Cl)N=2 | 31.7 µM (inactive) | 46.1 µM (inactive) | 39.4 µM (inactive) | 58.7 µM (inactive) | 33.2 µM (inactive) | > 100 µM (inactive) | 21.1 µM (inactive) | – | 29.4 µM (inactive) | 63.7 µM (inactive) | – | – | 16 µM (inactive) | 35.2 µM (inactive) | 69.2 µM (inactive) | 42 µM (inactive) | 31.1 µM (inactive) | 91.8 µM (inactive) | > 100 µM (inactive) | 34.8 µM (inactive)
CC1(C)CN=C(c2ccc3ccccc3c2O)N1 | > 100 µM (inactive) | 23.6 µM (inactive) | – | > 100 µM (inactive) | > 100 µM (inactive) | – | > 100 µM (inactive) | > 100 µM (inactive) | > 100 µM (inactive) | > 100 µM (inactive) | > 100 µM (inactive) | 22.2 µM (inactive) | > 100 µM (inactive) | > 100 µM (inactive) | > 100 µM (inactive) | – | > 100 µM (inactive) | > 100 µM (inactive) | > 100 µM (inactive) | > 100 µM (inactive)
COC(CN(C=O)[C@@H](c1ccc(Cl)cc1)c1cc2ccccc2o1)OC | 16.5 µM (inactive) | 21 µM (inactive) | 14.6 µM (inactive) | 15.8 µM (inactive) | 18.5 µM (inactive) | 0.397 µM (active) | 11.6 µM (inactive) | – | 17.3 µM (inactive) | 14.8 µM (inactive) | 15.8 µM (inactive) | 12.7 µM (inactive) | 14.8 µM (inactive) | 24.4 µM (inactive) | 20.8 µM (inactive) | 16 µM (inactive) | 16.7 µM (inactive) | 18.5 µM (inactive) | 15.8 µM (inactive) | 16.3 µM (inactive)
O=C1/C(=C/c2cc3c(=O)c4ccccc4sc3s2)NC(=S)N1c1ccccc1 | > 100 µM (inactive) | – | 15.4 µM (inactive) | > 100 µM (inactive) | > 100 µM (inactive) | > 100 µM (inactive) | > 100 µM (inactive) | > 100 µM (inactive) | 21 µM (inactive) | > 100 µM (inactive) | 48.3 µM (inactive) | > 100 µM (inactive) | > 100 µM (inactive) | 40.6 µM (inactive) | > 100 µM (inactive) | > 100 µM (inactive) | – | > 100 µM (inactive) | > 100 µM (inactive) | > 100 µM (inactive)
FC1=C2C3CCC(C3)C2C1(F)F (stereo unspecified) | > 100 µM (inactive) | > 100 µM (inactive) | > 100 µM (inactive) | > 100 µM (inactive) | > 100 µM (inactive) | > 100 µM (inactive) | > 100 µM (inactive) | > 100 µM (inactive) | > 100 µM (inactive) | > 100 µM (inactive) | > 100 µM (inactive) | > 100 µM (inactive) | > 100 µM (inactive) | > 100 µM (inactive) | > 100 µM (inactive) | > 100 µM (inactive) | – | > 100 µM (inactive) | > 100 µM (inactive) | > 100 µM (inactive)
C/C(=N\Nc1ccc2ccccc2n1)c1ccccc1O | 70.8 µM (inactive) | > 100 µM (inactive) | > 72.6 µM (inactive) | > 100 µM (inactive) | > 100 µM (inactive) | > 100 µM (inactive) | 3.96 µM (inactive) | – | 54.1 µM (inactive) | > 100 µM (inactive) | 19.6 µM (inactive) | 2.13 µM (inactive) | > 100 µM (inactive) | 7.38 µM (inactive) | > 100 µM (inactive) | 56.1 µM (inactive) | > 100 µM (inactive) | > 100 µM (inactive) | > 100 µM (inactive) | > 100 µM (inactive)
C=C1CC(C)(COc2ccc3c(C)c(Cl)c(=O)oc3c2)OC1=O (stereo unspecified) | 3.34 µM (inactive) | 11.1 µM (inactive) | – | 4.23 µM (inactive) | 2.97 µM (inactive) | 1.9 µM (inactive) | 0.361 µM (active) | 1.81 µM (inactive) | 7.82 µM (inactive) | 2.4 µM (inactive) | 5.9 µM (inactive) | 2.89 µM (inactive) | 1.39 µM (inactive) | 0.518 µM (active) | 2.82 µM (inactive) | 2.75 µM (inactive) | 1.06 µM (active) | 2.42 µM (inactive) | 0.59 µM (active) | 0.964 µM (active)
